Source: article PMC10649961, “Novel Mitochondria-Targeted Amphiphilic Aminophosphonium Salts and Lipids Nanoparticles: Synthesis, Antitumor Activity and Toxicity” (Nanomaterials, 2023)
≈ marks a conversion by molar mass, not a printed value. Like-named read-outs stand apart in the source and are kept apart here.

Experiments:
PC3 [1] = system: PC3
PC3 [2] = assay: cells; conditions: Homo sapiens, PC-3, 48 h, read-out: Cytotoxic Effects (IC50), PC3, MTT assay, 48 h
DU-145 [3] = conditions: reference normal cell line not marked at the place (ns cells)
A549 [4] = assay: cells; conditions: Homo sapiens, A549, 48 h, read-out: Cytotoxic Effects (IC50)
DU-145 [5] = assay: cells; conditions: Homo sapiens, DU-145, 48 h, read-out: Cytotoxic Effects (IC50), DU-145, MTT assay, 48 h
[6] = system: Pseudomonas aeruginosa ATCC 9027; assay: Antimicrobial activity, serial microdilutions, Pa; type: cell-based; parameters: key to Minimum Inhibitory Concentration (MIC) / Minimum bactericidal and fungicidal concentrations (MBC, MFC): – means non-active
Description: (§1) The antimicrobial activity of test compounds was determined by serial microdilutions in 96-well plates using Mueller-Hinton broth for bacterial culture and Sabouraud broth for yeast culture. Cultures of Gram-positive bacteria were used in the experiment: Staphylococcus aureus ATCC 6538 P FDA 209P, Bacillus cereus ATCC 10702 NCTC 8035, Enterococcus faecalis ATCC 29212; Gram-negative bacteria: Escherichia coli ATCC 25922, Pseudomonas aeruginosa ATCC 9027; and yeast: Candida albicans ATCC 10231, purchased from the State Collection of Pathogenic Microorganisms and Cell Cultures “SCPM-Obolensk” (Obolensk, Russia). Methicillin-resistant strains of S. aureus (MRSA) were isolated from patients with chronic tonsillitis (MRSA-1) and sinusitis (MRSA-2) in the bacteriological laboratory of the Republican Clinical Hospital (Kazan, Russia). The experiments were carried out in triplicate.

SK-OV-3 [7] = assay: cells; conditions: Homo sapiens, SK-OV-3, 48 h, read-out: Cytotoxic Effects (IC50)
MRSA-2 = assay: Antimicrobial activity, serial microdilutions, MRSA-2; type: cell-based, S. aureus; conditions: Staphylococcus aureus; for MIC: read-out: Minimum Inhibitory Concentration (MIC); for MBC: read-out: Minimum bactericidal and fungicidal concentrations (MBC, MFC)
Description: as §1

MCF-7 [8] = system: MCF-7
Hep G2 [9] = assay: cells; conditions: Homo sapiens, HepG2, 48 h, read-out: Cytotoxic Effects (IC50)
M-HeLa [10] = assay: cells; conditions: Homo sapiens, 48 h, read-out: Cytotoxic Effects (IC50)
HuTu 80 [11] = system: HuTu 80
MCF-7 [12] = assay: cells; conditions: Homo sapiens, MCF7, 48 h, read-out: Cytotoxic Effects (IC50)
[13] = system: Candida albicans ATCC 10231; assay: Antimicrobial activity, serial microdilutions, Ca; type: cell-based; parameters: key to Minimum Inhibitory Concentration (MIC) / Minimum bactericidal and fungicidal concentrations (MBC, MFC): – means non-active; conditions: for Minimum Inhibitory Concentration (MIC) / Minimum bactericidal and fungicidal concentrations (MBC, MFC): Ca
Description: as §1

PANC-1 [14] = assay: cells; conditions: Homo sapiens, PANC-1, 48 h, read-out: Cytotoxic Effects (IC50)
[15] = system: Enterococcus faecalis ATCC 29212; assay: Antimicrobial activity, serial microdilutions, Ef; type: cell-based; parameters: key to Minimum Inhibitory Concentration (MIC) / Minimum bactericidal and fungicidal concentrations (MBC, MFC): – means non-active; conditions: for MIC / MBC: Enterococcus faecalis; for MIC: ATCC29212, read-out: Minimum Inhibitory Concentration (MIC); for MBC: ATCC29212, read-out: Minimum bactericidal and fungicidal concentrations (MBC, MFC)
Description: as §1

Hep G2 [16] = system: Hep G2
M-HeLa [17] = system: M-HeLa
MRSA-1 = assay: Antimicrobial activity, serial microdilutions, MRSA-1; type: cell-based, S. aureus; parameters: key to Minimum Inhibitory Concentration (MIC) / Minimum bactericidal and fungicidal concentrations (MBC, MFC): – means non-active; conditions: for MIC / MBC: Staphylococcus aureus; for MIC: read-out: Minimum Inhibitory Concentration (MIC); for MBC: read-out: Minimum bactericidal and fungicidal concentrations (MBC, MFC)
Description: as §1

[18] = system: Bacillus cereus ATCC 10702 NCTC 8035; assay: Antimicrobial activity, serial microdilutions, Bc; type: cell-based; parameters: key to Minimum bactericidal and fungicidal concentrations (MBC, MFC): – means non-active; conditions: for MIC / MBC: Bacillus cereus; for MIC: read-out: Minimum Inhibitory Concentration (MIC); for MBC: read-out: Minimum bactericidal and fungicidal concentrations (MBC, MFC)
Description: as §1

PANC-1 [19] = system: PANC-1
HuTu 80 [20] = assay: cells; conditions: Homo sapiens, HuTu80, 48 h, read-out: Cytotoxic Effects (IC50)
SK-OV-3 [21] = system: SK-OV-3
[22] = system: Staphylococcus aureus ATCC 6538 P FDA 209P; assay: Antimicrobial activity, serial microdilutions, Sa; type: cell-based; conditions: Staphylococcus aureus; for MIC: read-out: Minimum Inhibitory Concentration (MIC); for MBC: read-out: Minimum bactericidal and fungicidal concentrations (MBC, MFC)
Description: as §1

[23] = system: Escherichia coli ATCC 25922; assay: Antimicrobial activity, serial microdilutions, Ec; type: cell-based; parameters: key to Minimum Inhibitory Concentration (MIC) / Minimum bactericidal and fungicidal concentrations (MBC, MFC): – means non-active; conditions: for MIC / MBC: Escherichia coli; for MIC: ATCC25922, read-out: Minimum Inhibitory Concentration (MIC); for MBC: ATCC25922, read-out: Minimum bactericidal and fungicidal concentrations (MBC, MFC)
Description: as §1

T98G [24] = assay: cells; conditions: Homo sapiens, 48 h, read-out: Cytotoxic Effects (IC50)
A549 [25] = conditions: reference normal cell line not marked at the place (ns cells)
T98G [26] = conditions: calculated relative to the cell line Chang liver (b)
[27] = calculated relative to the cell line WI38 (a)
[28] = reference normal cell line not marked at the place (ns cells)
[29] = calculated relative to the cell line Chang liver (b)

Structure (SMILES)	IC50 (PC3 [2]) [µM]	IC50 (A549 [4]) [µM]	Minimum Inhibitory Concentration (MIC) [6]	Minimum bactericidal and fungicidal concentrations (MBC, MFC) [6]	IC50 (SK-OV-3 [7]) [µM]	MIC (MRSA-2) [µM]	MBC (MRSA-2) [µM]	IC50 (Hep G2 [9]) [µM]	IC50 (M-HeLa [10]) [µM]	IC50 (MCF-7 [12]) [µM]	Minimum Inhibitory Concentration (MIC) [13]	Minimum bactericidal and fungicidal concentrations (MBC, MFC) [13]	IC50 (PANC-1 [14]) [µM]	MIC (MRSA-1) [µM]	MBC (MRSA-1) [µM]	MIC ([18]; Bc) [µM]	IC50 (HuTu 80 [20]) [µM]	MIC [22] [µM]	MBC [22] [µM]	Minimum Inhibitory Concentration (MIC) [23]	other results
CCN(CC)[P+](CCCCCC[P+](N(CC)CC)(N(CC)CC)N(CC)CC)(N(CC)CC)N(CC)CC [compound 9, 1,6-Hexanediyl-bis(hexaethyltriaminophosphonium)dibromide]	34.9 ± 4.5	> 100	–	–	36.4 ± 4.7	34.3 ± 5.3	137 ± 21	53.9 ± 6.9	31.1 ± 3.9	37.8 ± 4.8	–	–	39.6 ± 5.1	137 ± 19	137 ± 18	274 ± 48	13.1 ± 1.7	34.3 ± 5.4	137 ± 21	–	selectivity index (SI) (PC3 [1]; [27]): 1.3; selectivity index (SI) (DU-145 [3]): ns (ns—no selectivity); IC50 (DU-145 [5]): 50.5 ± 6.4 µM; selectivity index (SI) (MCF-7 [8]; [27]): 1.2; selectivity index (SI) (HuTu 80 [11]; [27]): 3.5; Minimum Inhibitory Concentration (MIC) [15]: –; Minimum bactericidal and fungicidal concentrations (MBC, MFC) [15]: –; selectivity index (SI) (Hep G2 [16]; [28]): ns (ns—no selectivity); selectivity index (SI) (M-HeLa [17]; [27]): 1.5; Minimum bactericidal and fungicidal concentrations (MBC, MFC) ([18]; Bc): –; selectivity index (SI) (PANC-1 [19]; [27]): 1.2; selectivity index (SI) (SK-OV-3 [21]; [27]): 1.3; Minimum bactericidal and fungicidal concentrations (MBC, MFC) [23]: –; IC50 (T98G [24]): > 100 µM
CCn1cc(C(=O)O)c(=O)c2cc(F)c(N3CCNCC3)cc21 [Norfloxacin, reference compound]						7.5 ± 0.5 (≈ 2.4 µg/mL)	7.5 ± 0.6 (≈ 2.4 µg/mL)				–					24.4 ± 2.1 (≈ 7.79 µg/mL)		7.5 ± 0.5 (≈ 2.4 µg/mL)	7.5 ± 0.6 (≈ 2.4 µg/mL)		MIC ([6]; Pseudomonas aeruginosa, ATCC9027, read-out: Minimum Inhibitory Concentration (MIC)): 12.1 ± 1.1 µM (≈ 3.86 µg/mL); MBC ([6]; Pseudomonas aeruginosa, ATCC9027, read-out: Minimum bactericidal and fungicidal concentrations (MBC, MFC)): 49 ± 4.2 µM (≈ 15.6 µg/mL); MIC [15]: 24.4 ± 2.2 µM (≈ 7.79 µg/mL); MBC [15]: 24.4 ± 1.9 µM (≈ 7.79 µg/mL); Minimum Inhibitory Concentration (MIC) (MRSA-1): –; Minimum bactericidal and fungicidal concentrations (MBC, MFC) (MRSA-1): –; MBC [18]: 24.4 ± 2.1 µM (≈ 7.79 µg/mL); MIC [23]: 4.7 ± 0.02 µM (≈ 1.5 µg/mL); MBC [23]: 24.4 ± 2.3 µM (≈ 7.79 µg/mL)
CC(=O)N1CCN(c2ccc(OCC3COC(Cn4ccnc4)(c4ccc(Cl)cc4Cl)O3)cc2)CC1 (centres unmarked) [Ketoconazole, reference compound]																				–	MIC ([13]; Candida albicans, ATCC10231, read-out: Minimum Inhibitory Concentration (MIC)): 7.3 ± 0.5 µM (≈ 3.88 µg/mL); MBC ([13]; Candida albicans, ATCC10231, read-out: Minimum bactericidal and fungicidal concentrations (MBC, MFC)): 7.3 ± 0.5 µM (≈ 3.88 µg/mL)
CCCCCCCCC[P+](N(CC)CC)(N(CC)CC)N(CC)CC [4c, Tris(diethylamino)(nonyl)phosphonium iodide]	1.8 ± 0.1	21.1 ± 1.5	–	–	12.1 ± 1.1	7.8 ± 0.6	250 ± 20	2.4 ± 0.1	1.7 ± 0.1	1.9 ± 0.1	–	–	1.7 ± 0.1	3.9 ± 0.4	125 ± 10	3.9 ± 0.3	2.6 ± 0.2	3.9 ± 0.3	250 ± 18		selectivity index (SI) (PC3 [1]; [29]): 2.7; selectivity index (SI) (A549 [25]): ns (ns—no selectivity); selectivity index (SI) (T98G [26]): 1.5; selectivity index (SI) (MCF-7 [8]; [29]): 2.5; selectivity index (SI) (HuTu 80 [11]; [29]): 1.8; MIC [15]: 62.5 ± 5.2 µM; MBC [15]: 500 ± 48 µM; selectivity index (SI) (Hep G2 [16]; [29]): 2.0; selectivity index (SI) (M-HeLa [17]; [29]): 2.8; MBC [18]: > 500 µM; selectivity index (SI) (PANC-1 [19]; [29]): 2.8; selectivity index (SI) (SK-OV-3 [21]; [28]): ns (ns—no selectivity); MIC [23]: 500 ± 48 µM; MBC [23]: 500 ± 48 µM; IC50 (T98G [24]): 3.2 ± 0.2 µM
